One series has as its system RAW 264.7 cells. The series can be described thus: In situ competitive activity-based protein profiling (cABPP). Format: cell-based. Conditions: 0-100 μM for 4 hours, then JJB75 10 nM for 2 hours, fluorescence SDS-gel scanning. The procedure:
We further investigated GBA1 inhibition in cells. Human dermal fibroblasts were initially incubated with peptide concentrations ranging from 0.1 μM (from 0.001 μM for L4, D1 and D12) to 100 μM of each cyclic peptide for 3 hours. […] To further confirm the inability of these peptides to cross the cell membrane, we conducted in situ competitive activity-based protein profiling (cABPP) experiments using RAW 264.7 monocyte/macrophage-like cells. […]
Figure S6. […] Cells were washed, lysed and analysed by fluorescent readout. […]
Human fibroblasts (Cambrex-Lonza CC-2511) were cultured in complete DMEM/F12 growth medium supplemented with 10% (v/v) foetal calf serum and 0.1 % (w/v) penicillin/streptomycin at 37 °C and 5% CO2. […] GlcCer and GlcSph lipids were quantified as described below. In parallel, enzyme activity in cell lysates was measured using 3.7 mM 4-methylumbeliferone (4MU)-β-D-glucopyranoside in 150 mM McIlvaine buffer pH 5.2 supplemented with 0.1% bovine serum albumin (BSA) (w/v), 0.1% Triton X-100 (v/v), and 0.2% sodium taurocholate (w/v) as described above (see Table S1). […]
Cells were kept on ice and equal protein amounts were loaded per well on a 10% SDS-PAGE gel. Gels were scanned for fluorescence and then stained with Coomassie Brilliant Blue for loading control. […]
Levels of GlcCer and GlcSph were determined with a modified acidic Bligh & Dyer extraction (Figure 2 […]

The target in a further series is T1, GBA2 (Homo sapiens, UniProt Q9HCG7).
T1 construct: expressed in transfected cells
T1 sequence (Q9HCG7 1-927): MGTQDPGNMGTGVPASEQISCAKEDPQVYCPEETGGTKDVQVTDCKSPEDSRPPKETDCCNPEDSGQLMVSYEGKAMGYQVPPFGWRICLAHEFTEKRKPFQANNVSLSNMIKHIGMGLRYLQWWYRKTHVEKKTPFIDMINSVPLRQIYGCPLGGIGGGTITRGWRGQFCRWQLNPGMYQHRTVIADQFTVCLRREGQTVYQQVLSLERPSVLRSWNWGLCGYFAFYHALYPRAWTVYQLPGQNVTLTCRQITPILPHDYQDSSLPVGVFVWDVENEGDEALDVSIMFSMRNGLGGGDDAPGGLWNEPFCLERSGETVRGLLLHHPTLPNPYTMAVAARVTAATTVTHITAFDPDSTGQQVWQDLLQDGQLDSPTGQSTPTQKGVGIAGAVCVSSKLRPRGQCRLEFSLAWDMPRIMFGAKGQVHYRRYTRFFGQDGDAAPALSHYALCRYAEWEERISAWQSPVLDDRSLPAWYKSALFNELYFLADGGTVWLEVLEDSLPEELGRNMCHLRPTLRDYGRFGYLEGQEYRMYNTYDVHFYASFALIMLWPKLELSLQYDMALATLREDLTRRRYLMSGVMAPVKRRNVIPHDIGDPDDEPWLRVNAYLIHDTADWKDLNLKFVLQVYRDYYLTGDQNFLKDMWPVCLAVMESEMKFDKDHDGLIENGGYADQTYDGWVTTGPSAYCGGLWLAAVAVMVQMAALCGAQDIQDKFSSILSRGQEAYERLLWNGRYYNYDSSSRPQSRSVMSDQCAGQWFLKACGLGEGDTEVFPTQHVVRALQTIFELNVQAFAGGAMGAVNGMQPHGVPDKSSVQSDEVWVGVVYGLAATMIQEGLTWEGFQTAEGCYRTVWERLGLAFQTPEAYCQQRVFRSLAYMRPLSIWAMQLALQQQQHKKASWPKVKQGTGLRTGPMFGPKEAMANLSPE
Put plainly: GBA2 inhibition in overexpressing HEK293T lysates. Format: biochemical. Conditions: McIlvaine pH 5.8, 4-MU substrate. The procedure: (§1) Based on the pull-down validation, a set of eight cyclic peptides (L1, L2, L4, L6, D1, D8, D12 and D13) were identified, synthesized, and evaluated for their inhibitory potency against recombinant human GBA1 (rhGBA1, Cerezyme®) and their selectivity over human β-glucosidases GBA2 and GBA3. Half-maximum inhibitory concentration (IC50) values for β-glucosidases were determined in vitro by measuring hydrolysis of 4-methylumbelliferyl-β-D-glucopyranoside (4-MU-β-D-Glu) fluorogenic substrate. […]
2.5. In vitro IC50 and Ki measurements […]
nM) at 37 °C for 30 min. Following this, 100 µL of 4MU substrate was added and the samples were again incubated at 37 °C for 30 min. The reaction was quenched using excess 1 M NaOH-glycine (200 µL, pH 10.3) and 4MU fluorescence was measured using a LS55 fluorimeter (λEx 366 nm and λEm 445 […]
GBA2 and GBA3 IC50 values were determined following a similar protocol,5 using stable GBA2 or GBA3 HEK293T over-expression cell lysates and McIlvaine buffer pH 5.8 with 0.1 % BSA (w/v) and 100 mM HEPES with 0.1 % BSA, respectively. Covalent inhibitor of endogenous GBA1 (1 µM Bodipy green-cyclophellitol β-epoxide activity based probe) was added for both GBA2 and GBA3 assays, and GBA2 inhibitor N-(5-adamantane-1-yl-methoxy-pentyl)-deoxynojirimycin, AMP-DNM at 1 nM) was added for GBA3 assay. Cell lysates were pre-incubated with the aforementioned GBA1/GBA2 inhibitors for 30 min at 37 °C (12.5 µL) and subsequently incubated with the tested ligands at a range of concentrations for 30 min at 37 °C (12.5 µL), after which 100 µL 4MU-β-D-glucopyranoside was added for a final incubation of 30 min at 37 °C, quenched with 200 µL 1 M NaOH-glycine (pH 10.3) and fluorescence was measured. IC50 values were calculated using GraphPad Prism version 8.

For series [1], the target named is T2, recombinant human GBA1 (rhGBA1, Cerezyme) (Homo sapiens, UniProt P04062, R534H).
T2 construct: purchased Cerezyme
T2 sequence (P04062 40-536 R534H): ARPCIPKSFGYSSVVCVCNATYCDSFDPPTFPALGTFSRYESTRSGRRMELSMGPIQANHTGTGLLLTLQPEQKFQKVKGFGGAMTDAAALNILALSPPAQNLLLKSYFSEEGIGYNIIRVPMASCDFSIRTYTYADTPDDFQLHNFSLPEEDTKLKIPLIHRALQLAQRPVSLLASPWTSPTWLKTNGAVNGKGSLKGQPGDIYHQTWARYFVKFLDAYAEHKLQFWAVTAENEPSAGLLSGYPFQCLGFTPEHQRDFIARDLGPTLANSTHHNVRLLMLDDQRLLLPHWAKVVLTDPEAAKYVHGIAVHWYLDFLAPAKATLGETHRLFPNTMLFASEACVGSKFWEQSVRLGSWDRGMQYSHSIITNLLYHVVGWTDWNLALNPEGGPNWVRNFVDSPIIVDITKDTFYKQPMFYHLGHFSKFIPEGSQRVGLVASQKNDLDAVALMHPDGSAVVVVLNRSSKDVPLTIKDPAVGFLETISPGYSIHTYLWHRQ
Put plainly: In vitro rhGBA1 inhibition, 4-MU-β-D-glucopyranoside hydrolysis. Conditions: Cerezyme 14 nM, 3.7 mM 4-MU-β-D-glucopyranoside, McIlvaine pH 5.2, 30 min pre-incubation 37 °C + 30 min, mean ± SD from 3 technical triplicates. The class given is biochemical. As for the experimental part:
as §1
Pure product fractions were pooled, lyophilized, and dissolved again in DMSO before concentration was determined by A280 using a sample diluted in phosphate buffer at pH 7.4 and extinction coefficients determined from the sequence using the Expasy ProtParam online tool (https://web.expasy.org/protparam/). […]
2.5. In vitro IC50 and Ki measurements
For GBA1, IC50 values were determined using the recombinant human GBA1 (rhGBA1, Cerezyme) following described procedures.4 Enzyme activity was measured using 3.7 mM 4-methylumbeliferone (4MU)-β-D-glucopyranoside in 150 mM McIlvaine buffer pH 5.2 supplemented with 0.1% bovine serum albumin (BSA) (w/v), 0.1% Triton X-100 (v/v), and 0.2% sodium taurocholate (w/v). Varying concentrations of inhibitor (12.5 µL) were incubated with 12.5 µL of enzyme (final concentration 14 nM) at 37 °C for 30 min. Following this, 100 µL of 4MU substrate was added and the samples were again incubated at 37 °C for 30 min. The reaction was quenched using excess 1 M NaOH-glycine (200 µL, pH 10.3) and 4MU fluorescence was measured using a LS55 fluorimeter (λEx 366 nm and λEm 445 […]
30 min at 37 °C (12.5 µL) and subsequently incubated with the tested ligands at a range of concentrations for 30 min at 37 °C (12.5 µL), after which 100 µL 4MU-β-D-glucopyranoside was added for a final incubation of 30 min at 37 °C, quenched with 200 µL 1 M NaOH-glycine (pH 10.3) and fluorescence was measured. IC50 values were calculated using GraphPad Prism version 8.

Usually IC50 stands for the concentration at which inhibition is half-maximal.

Positions of bridges follow the written chain, without caps; N, C: chain ends. Non-standard residues stand in square brackets, D forms with d. Residues, ends and D or L forms follow the SMILES beside them.

Regarding `CC1=CC(C)=[N+]2C1=C(CCCCc1cn(C[C@@H]3[C@@H](O)[C@H](O)[C@@H](O)[C@@H]4O[C@H]34)nn1)c1c(C)cc(C)n1[B-]2(F)F` [MDW933], the “competition with ABP JJB75 (cell permeability)” value with RAW 264.7 cells was “did show competition”.

Consider `CC[C@H](C)[C@@H]1NC(=O)[C@H](CC(C)C)NC(=O)[C@H](Cc2ccc(O)cc2)NC(=O)[C@H](C)NC(=O)[C@H](CCC(N)=O)NC(=O)[C@H](CO)NC(=O)[C@H](CCCCN)NC(=O)[C@H]([C@@H](C)O)NC(=O)[C@H](Cc2c[nH]c3ccccc23)NC(=O)[C@H]([C@@H](C)O)NC(=O)[C@H]([C@@H](C)CC)NC(=O)[C@H](C(C)C)NC(=O)[C@H](CCC(N)=O)NC(=O)[C@@H](Cc2ccc(O)cc2)NC(=O)CSC[C@@H](C(N)=O)NC(=O)[C@H](CCC(N)=O)NC1=O` [D13] ({CH2CO}-[dY]QVITWTKSQAYLIQC-NH2; thioether N-16), for which the IC50 against GBA2 is above 100 µM; in series [1] (SD) it was 26.4 ± 3.31 µM. For the same compound, the “rhGBA1 IC50” value in series [1] is recorded as “high micromolar range”.
